{"source": "paper PMC9993459", "about": "“A novel selective spleen tyrosine kinase inhibitor SKI-O-703 (cevidoplenib) ameliorates lupus nephritis and serum-induced arthritis in murine models” (Clinical and Experimental Immunology, 2022)", "key": {"[1]": {"target": "T1, phosphorylation of Syk in mouse primary B cells (Mus musculus, UniProt P48025)", "T1 construct": "endogenous in cells; host or cells: mouse primary B cells (splenic CD19+ B cells of C57BL/6 mice)", "T1 sequence (P48025 whole entry)": "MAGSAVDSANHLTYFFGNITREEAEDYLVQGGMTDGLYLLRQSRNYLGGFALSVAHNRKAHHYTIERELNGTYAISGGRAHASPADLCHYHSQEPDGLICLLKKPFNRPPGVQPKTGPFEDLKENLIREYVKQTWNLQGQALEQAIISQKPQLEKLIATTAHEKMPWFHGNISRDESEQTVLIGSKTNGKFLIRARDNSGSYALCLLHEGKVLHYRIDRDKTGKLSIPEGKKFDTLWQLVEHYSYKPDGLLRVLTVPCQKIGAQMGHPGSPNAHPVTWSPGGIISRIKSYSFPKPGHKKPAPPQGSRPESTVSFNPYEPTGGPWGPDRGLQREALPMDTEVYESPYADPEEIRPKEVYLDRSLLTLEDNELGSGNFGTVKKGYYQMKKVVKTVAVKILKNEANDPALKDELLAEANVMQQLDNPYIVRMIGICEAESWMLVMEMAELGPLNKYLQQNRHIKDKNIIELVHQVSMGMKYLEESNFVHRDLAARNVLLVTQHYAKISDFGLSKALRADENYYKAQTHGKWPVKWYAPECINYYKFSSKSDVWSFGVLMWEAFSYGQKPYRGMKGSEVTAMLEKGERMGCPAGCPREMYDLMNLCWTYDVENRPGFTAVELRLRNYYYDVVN", "assay": "p-Syk by FACS in stimulated mouse primary B cells", "assay_type": "cell-based", "settings": "BCR and CD40 stimulation", "text": "Figure 1: in vitro inhibitory effects of SKI-O-592 and -703 on Syk in B cells and monocytes. Ramos cells (A), human primary monocytes (B), and THP cells (C) were pretreated with inhibitors at the indicated concentrations and stimulated with anti-human IgM (A) and human IgG (B and C). The cells were then lysed and assayed by immunoblotting methods. The relative intensities of protein phosphorylation levels were quantitated with reference to each lane of β-actin control bands. (D) Ramos cells, human primary monocytes, and THP cells were treated as in A–C for 24 h and levels of phosphorylated Syk (p-Syk) were measured by ELISA. (E) Mouse primary B cells were stimulated with anti-IgM mAb for 60 min in the presence or absence of SKI-O-703 and assayed for p-Syk by FACS. A representative FACS profile and data on the dose-response of mean fluorescence intensity (MFI) are shown. The data are representative of two independent experiments."}, "mouse primary B cells": {"test_system": "mouse primary B cells", "assay": "Annexin V/7-AAD apoptosis assay in B cells", "assay_type": "cell-based", "settings": "24 h, effect more potent with anti-IgM than LPS", "procedure": "Splenic CD19^+ B cells from C57BL/6 mice were sorted by MACS (Milteny Biotec), stained with 3 μM cell proliferation dye eFluor 670 (CP670; eBioscience), and cultured for 72 h in the presence of either 10 μg/ml LPS (Sigma Aldrich) or 5 μg/ml anti-mouse IgM (Jackson Immuno Research Laboratories), 10 μg/ml anti-CD40 mAb (Biolegend) and 10 ng/ml IL-4 (Peprotech), and assayed by FACS. To detect apoptotic cells, unstimulated cells were cultured for 24 h, stained with Annexin V and 7-aminoactinomycin D (7-AAD), and assayed by FACS.\nFigure 2: in vitro effects of SKI-O -703 on the proliferation, survival, and differentiation of B cells. Mouse primary B cells were labeled with CP670, and stimulated with either anti-IgM mAb, CD40L and IL-4 (A) or LPS (B) for 72 h in the presence or absence of SKI-O-703 and tofacitinib at the indicated concentrations; they were then assayed by FACS. (C and D) Mouse primary B cells were cultured as in A and B for 24 h, stained with Annexin V and 7-AAD, and assayed by FACS. Representative FACS profiles and graphs displaying mean Annexin V-positivity are shown. (E) Human primary B cells were stimulated with CpG ODN plus IL-2 (to detect IgM and IgG) or CpG ODN 2006 plus IFN-α (to detect IL-6) in the presence or absence of inhibitors. The culture supernatants were assayed by ELISA. Graphs are expressed as % positivity relative to the controls (without inhibitor). […]"}, "Aqueous solubility": {"assay": "Aqueous solubility", "assay_type": "physicochemical", "settings": "aqueous solution"}, "[2]": {"target": "T2, phosphorylated Syk (p-Syk) in Ramos cells (Homo sapiens, UniProt P43405)", "T2 construct": "endogenous in cells; host or cells: Ramos (ATCC), THP-1 (ATCC), human CD14+ monocytes (Lonza)", "assay": "p-Syk ELISA in anti-IgM-stimulated Ramos cells (BCR signal)", "assay_type": "cell-based", "procedure": "THP-1 and Ramos cell lines and human CD14^+ monocytes were purchased from the American Type Culture Collection (ATCC) and Lonza, respectively. After treatment with Syk inhibitors for 1 h, THP-1 cells and monocytes were stimulated for 15 min with 100 μg/ml human IgG (Invitrogen), and Ramos cells were stimulated with 2 μg/ml anti-human IgM monoclonal Ab (mAb) (Bathyl). Cells were lysed in RIPA buffer containing 1% NP-40, 1% sodium deoxycholate, 0.1% SDS, and a mixture of protease and phosphatase inhibitors (Thermo Scientific). The lysates were assayed by standard immunoblotting methods and ELISA. Primary Abs used for immunoblotting were anti-phospho-Syk ([…]), anti-phospho-Vav (Y174), anti-phospho-PLCγ1 (Y1217) and anti-phospho-BLNK (Y96) Abs (all from Cell Signaling). ELISAs to detect phospho-Syk (Y525/526) were performed according to the manufacturer’s protocol (Cell Signaling).\nRamos cells (A), human primary monocytes (B), and THP cells (C) were pretreated with inhibitors at the indicated concentrations and stimulated with anti-human IgM (A) and human IgG (B and C). […] The relative intensities of protein phosphorylation levels were quantitated with reference to each lane of β-actin control bands. (D) Ramos cells, human primary monocytes, and THP cells were treated as in A–C for 24 h and levels of phosphorylated Syk (p-Syk) were measured by ELISA."}}, "data": [{"smiles": "CS(=O)(=O)O.CS(=O)(=O)O.Cc1nn(-c2ccnc(Nc3ccc4c(c3)c(C(=O)C3CC3)cn4C)n2)cc1CN1C[C@H](O)CO1", "note": "[SKI-O-703, (S)-cyclopropyl(5-((4-(4-((4-hydroxyisoxazolidin-2-yl)methyl)-3-methyl-1H-pyrazol-1-yl)pyrimidin-2-yl)amino)-1-methyl-1H-indol-3-yl)methanone dimesylate]", "values": [{"measurement": "Phosphorylation of Syk in mouse primary B cells", "setting": "[1]", "result": "reduced the phosphorylation of Syk"}, {"measurement": "Proportions of early and late apoptotic B cells", "setting": "mouse primary B cells", "result": "increased the proportions of early and late apoptotic cells"}, {"measurement": "Solubility", "setting": "Aqueous solubility", "result": "soluble in aqueous solution"}]}, {"smiles": "Cc1nn(-c2ccnc(Nc3ccc4c(c3)c(C(=O)C3CC3)cn4C)n2)cc1CN1C[C@H](O)CO1", "note": "[SKI-O-592]", "values": [{"measurement": "IC50", "setting": "[2]", "result": 282, "unit": "nM"}]}]}
